Assay results published in PubChem BioAssay AID1963445 (Molecular Pharmacology Branch, DTP, NCI, 2024).
Where “and” joins values, the source holds several entries; their conditions need not be identical. Equal values may be shown once.

System: MCF7 complex spheroid growth, % test/control
Experiment: Anticancer human tumor MCF7 cell line growth inhibition [Asc];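 also: spheroids exposed to compounds for 7 days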;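 as to viability, T/C: 100% = DMSO vehicle control wells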
Conditions: for viability, T/C: stronger effect = lower value; active = viability on the fitted dose curve at most 10% of control; inactive = the rest
Outline: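 Complex spheroids combining tumor cells with HUVEC endothelial cells and human MSCs, at 37 degrees C, 5% CO2; agents tested alone or combined, half-log dilutions from at or near clinical Cmax, or 10 microM if Cmax unknown.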

[1] = curve of first compound, second compound 0.0316 µM
[2] = curve of first compound, second compound 0.1 µM
[3] = curve of first compound, second compound 0.316 µM
[4] = curve of first compound, second compound 1 µM
[5] = curve of first compound, second compound 3.16 µM
[6] = curve of first compound, second compound 10 µM
[7] = second compound 0.0316 µM, first compound 0.0316 µM
[8] = second compound 0.0316 µM, first compound 0.1 µM
[9] = second compound 0.0316 µM, first compound 0.316 µM
[10] = second compound 0.0316 µM, first compound 1 µM
[11] = second compound 0.0316 µM, first compound 3.16 µM
[12] = second compound 0.0316 µM, first compound 10 µM
[13] = second compound 0.1 µM, first compound 0.0316 µM
[14] = second compound 0.1 µM, first compound 0.1 µM
[15] = second compound 0.1 µM, first compound 0.316 µM
[16] = second compound 0.1 µM, first compound 1 µM
[17] = second compound 0.1 µM, first compound 3.16 µM
[18] = second compound 0.1 µM, first compound 10 µM
[19] = second compound 0.316 µM, first compound 0.0316 µM
[20] = second compound 0.316 µM, first compound 0.1 µM
[21] = second compound 0.316 µM, first compound 0.316 µM
[22] = second compound 0.316 µM, first compound 1 µM
[23] = second compound 0.316 µM, first compound 3.16 µM
[24] = second compound 0.316 µM, first compound 10 µM
[25] = second compound 1 µM, first compound 0.0316 µM
[26] = second compound 1 µM, first compound 0.1 µM
[27] = second compound 1 µM, first compound 0.316 µM
[28] = second compound 1 µM, first compound 1 µM
[29] = second compound 1 µM, first compound 3.16 µM
[30] = second compound 1 µM, first compound 10 µM
[31] = second compound 3.16 µM, first compound 0.0316 µM
[32] = second compound 3.16 µM, first compound 0.1 µM
[33] = second compound 3.16 µM, first compound 0.316 µM
[34] = second compound 3.16 µM, first compound 1 µM
[35] = second compound 10 µM, first compound 0.0316 µM
[36] = second compound 10 µM, first compound 0.1 µM
[37] = second compound 10 µM, first compound 0.316 µM
[38] = second compound 10 µM, first compound 1 µM

O=C(c1cc(Cc2n[nH]c(=O)c3ccccc23)ccc1F)N1CCN(C(=O)C2CC2)CC1 + Cc1c(S(C)(=O)=O)c(-c2cc(F)cc(N3CCN(c4ccc(NS(=O)(=O)c5ccc(NC(CCN6CCC(C(=O)OCCCP(=O)(O)O)CC6)CSc6ccccc6)c(S(=O)(=O)C(F)(F)F)c5)cc4)CC3)c2)c(-c2ccc(Cl)cc2)n1C(C)C
7.13 µM: IC50 [5]
> 10 µM: IC50 [1] | IC50 [2] | IC50 [3]
inactive: viability, T/C [7] 95.8% | viability, T/C [8] 99.9% | viability, T/C [9] 118% | viability, T/C [10] 95.9% | viability, T/C [11] 80.5% | viability, T/C [12] 54.3% | viability, T/C [13] 117% | viability, T/C [14] 99.8% | viability, T/C [15] 87% | viability, T/C [16] 99.4% | viability, T/C [17] 84.5% | viability, T/C [18] 57.6% | viability, T/C [19] 117% | viability, T/C [20] 109% | viability, T/C [21] 101% | viability, T/C [22] 93.7% | viability, T/C [23] 72.8% | viability, T/C [24] 52.5% | viability, T/C [25] 119% | viability, T/C [26] 107% | viability, T/C [27] 91.9% | viability, T/C [28] 105% | viability, T/C [29] 88.9% | viability, T/C [30] 40.4% | viability, T/C [31] 108% | viability, T/C [32] 72.5% | viability, T/C [33] 79.1% | viability, T/C [34] 93.6% | viability, T/C (second compound 3.16 µM, first compound 3.16 µM) 68.2% | viability, T/C (second compound 3.16 µM, first compound 10 µM) 42.4% | viability, T/C [35] 82.6% | viability, T/C [36] 84.4% | viability, T/C [37] 74.6% | viability, T/C [38] 86.9% | viability, T/C (second compound 10 µM, first compound 3.16 µM) 76.3% | viability, T/C (second compound 10 µM, first compound 10 µM) 45.4%
8.02 µM: IC50 [4]
8.47 µM: IC50 [6]

Cn1ncnc1[C@H]1c2n[nH]c(=O)c3cc(F)cc(c23)N[C@@H]1c1ccc(F)cc1
> 0.1 µM: IC50 (curve of compound)
inactive: viability, T/C (compound 0.000316 µM) 95.7% and 82.9% and 96.4% | viability, T/C (compound 0.001 µM) 97.3% and 106% and 99.9% | viability, T/C (compound 0.00316 µM) 97.1% and 107% and 101% | viability, T/C (compound 0.01 µM) 63.8% and 84.2% and 67.2% | viability, T/C (compound 0.0316 µM) 60% and 87.7% and 88.1% | viability, T/C (compound 0.1 µM) 48.8% and 84.9% and 75.1%

CNC(C)C(=O)NC1CN(S(=O)(=O)c2cccc(S(=O)(=O)N3CCC4CCC(C(=O)NC(c5ccccc5)c5ccccc5)N4C(=O)C(NC(=O)C(C)NC)C3)c2)CCC2CCC(C(=O)NC(c3ccccc3)c3ccccc3)N2C1=O (stereo not drawn) + Cc1c(S(C)(=O)=O)c(-c2cc(F)cc(N3CCN(c4ccc(NS(=O)(=O)c5ccc(NC(CCN6CCC(C(=O)OCCCP(=O)(O)O)CC6)CSc6ccccc6)c(S(=O)(=O)C(F)(F)F)c5)cc4)CC3)c2)c(-c2ccc(Cl)cc2)n1C(C)C
< 0.00316 µM: IC50 [5]
0.00644 µM: IC50 [2]
inactive: viability, T/C (second compound 0.0316 µM, first compound 0.00316 µM) 73.3% | viability, T/C (second compound 0.0316 µM, first compound 0.01 µM) 17.6% | viability, T/C [7] 15.6% | viability, T/C [8] 18.6% | viability, T/C [9] 16.3% | viability, T/C [10] 20.2% | viability, T/C (second compound 0.1 µM, first compound 0.00316 µM) 96.3% | viability, T/C (second compound 0.1 µM, first compound 0.01 µM) 21.4% | viability, T/C [13] 17.3% | viability, T/C [14] 17% | viability, T/C [15] 17.7% | viability, T/C [16] 16.9% | viability, T/C (second compound 0.316 µM, first compound 0.00316 µM) 65.9% | viability, T/C (second compound 0.316 µM, first compound 0.01 µM) 25.1% | viability, T/C [19] 16.4% | viability, T/C [20] 19% | viability, T/C [21] 19.2% | viability, T/C [22] 18.8% | viability, T/C (second compound 1 µM, first compound 0.00316 µM) 78.9% | viability, T/C (second compound 1 µM, first compound 0.01 µM) 20% | viability, T/C [25] 18.6% | viability, T/C [26] 19.8% | viability, T/C [27] 17.4% | viability, T/C [28] 15.9% | viability, T/C (second compound 3.16 µM, first compound 0.00316 µM) 37% | viability, T/C (second compound 3.16 µM, first compound 0.01 µM) 19.1% | viability, T/C [31] 18.3% | viability, T/C [32] 22.8% | viability, T/C [33] 20.4% | viability, T/C [34] 20.1% | viability, T/C (second compound 10 µM, first compound 0.00316 µM) 56% | viability, T/C (second compound 10 µM, first compound 0.01 µM) 31.6% | viability, T/C [35] 23.8% | viability, T/C [36] 21.7% | viability, T/C [37] 21.5% | viability, T/C [38] 24%
0.00492 µM: IC50 [3]
0.00417 µM: IC50 [6]
0.00556 µM: IC50 [4]
0.00515 µM: IC50 [1]

C#Cc1c(F)ccc2cc(O)cc(-c3ncc4c(N5CC6CCC(C5)N6)nc(OCC56CCCN5CC(F)C6)nc4c3F)c12 (stereo not drawn) + CNC(C)C(=O)NC1CN(S(=O)(=O)c2cccc(S(=O)(=O)N3CCC4CCC(C(=O)NC(c5ccccc5)c5ccccc5)N4C(=O)C(NC(=O)C(C)NC)C3)c2)CCC2CCC(C(=O)NC(c3ccccc3)c3ccccc3)N2C1=O
inactive: viability, T/C (second compound 0.00316 µM, first compound 0.0316 µM) 41.9% | viability, T/C (second compound 0.00316 µM, first compound 0.1 µM) 44.3% | viability, T/C (second compound 0.00316 µM, first compound 0.316 µM) 16.3% | viability, T/C (second compound 0.00316 µM, first compound 1 µM) 18.9% | viability, T/C (second compound 0.01 µM, first compound 0.0316 µM) 19% | viability, T/C (second compound 0.01 µM, first compound 0.1 µM) 12.6% | viability, T/C (second compound 0.01 µM, first compound 0.316 µM) 12.2% | viability, T/C [7] 11.6% | viability, T/C [8] 12.4% | viability, T/C [9] 10.9% | viability, T/C [13] 12.5% | viability, T/C [14] 10.4% | viability, T/C [15] 11.9% | viability, T/C [19] 12.8% | viability, T/C [20] 12.9% | viability, T/C [21] 12.2% | viability, T/C [25] 13.9% | viability, T/C [26] 12.2% | viability, T/C [27] 13%
< 0.0316 µM: IC50 (curve of first compound, second compound 0.00316 µM) | IC50 (curve of first compound, second compound 0.01 µM) | IC50 [1] | IC50 [2] | IC50 [3] | IC50 [4]
active: viability, T/C (second compound 0.00316 µM, first compound 3.16 µM) 11.3% | viability, T/C (second compound 0.00316 µM, first compound 10 µM) 2.37% | viability, T/C (second compound 0.01 µM, first compound 1 µM) 11.8% | viability, T/C (second compound 0.01 µM, first compound 3.16 µM) 9.39% | viability, T/C (second compound 0.01 µM, first compound 10 µM) 4.11% | viability, T/C [10] 11.4% | viability, T/C [11] 9.52% | viability, T/C [12] 3.7% | viability, T/C [16] 11.2% | viability, T/C [17] 11.4% | viability, T/C [18] 3.67% | viability, T/C [22] 10.8% | viability, T/C [23] 11.4% | viability, T/C [24] 2.21% | viability, T/C [28] 10.6% | viability, T/C [29] 8.64% | viability, T/C [30] 1.87%
